Columns and labels:
Type in all cases: cell-based
[1] = system: human muscular skeletal cells (hSKMC); assay: Alleviation of TNF-α induced muscle mass loss in human skeletal muscle cells by immunofluorescence; details: for % Loss (muscle mass loss): 0.01 mg/ml peptide after 20 ng/ml TNFα, normalized to mass loss control (BC + TNF) = 100; for Mass loss compared to basal control treated with TNF-α (in words): 0.01 mg/ml, hSKMC
Protocol: In vitro alleviation of the effects of muscle mass loss induced in human skeletal muscle cells by immunofluorescence.
Muscle mass loss correction by the peptides of the invention is evaluated by an immunofluorescence assay. The aim of this study is to investigate the capacity of peptide candidates to alleviate muscular mass loss after treatment with TNF-α in human muscular skeletal cells (hSKMC), i.e., to reverse the adverse effects induced by TNF-α (a model of muscular ageing). Myosin heavy chain (MHyC) is used as a morphologic marker of differentiated myotubes allowing the measurement of their diameters, and this can be used to ascertain a degree of mass loss. Tumor necrosis factor α (TNF-α) has been described in the literature as a muscle mass loss inductor.
hSKMC (Tebu-Bio) are seeded in 96-well plates at a density of 1.5×10^4 cells/well in Skeletal Muscle Cell Growth Medium (Promocell). After 24 hours incubation, the medium is replaced with Skeletal Muscle Cell Differentiation Medium (Promocell) and cells are differentiated for 6 days. After this, muscular cells mass loss is induced by adding fresh differentiation medium with 20 ng/ml TNFα (Sigma). Non-TNFα treated cells are used as a basal control (BC). After 24 hours of mass loss induction, the culture medium is replaced in some of the well plates with fresh differentiation medium comprising 0.01 mg/ml of the peptides of the invention. TNFα treated cells which are not treated with peptides are used as a mass loss control (BC + TNF) and cells which are treated with neither the peptides of the invention nor TNFα are used as a basal mass loss control (BC). Treatment is renewed 24 hours later. After 24 hours after the second treatment, immunofluorescence is determined. Cells are fixed 15 minutes with 4% Paraformaldehyde (Sigma), permeated 15 minutes with 1% Triton X-100 (Sigma) and then blocked with 5% Bovine Serum Albumin (Sigma). Next, primary antibody Anti-MHyC mouse (1:100, Vitro) is added and incubated overnight at 4° C. After that, secondary antibody Alexa Fluor 488 goat anti-mouse IgG (1:250, Life Technologies) is added and incubated for 1 hour. Finally, myotube diameters are determined by imaging MHyC staining by Operetta™ (Perkin Elmer). Percentage of mass loss is automatically calculated with Harmony™ (Perkin Elmer) software by classifying myotubes according to their diameter using a mass loss threshold of 20 µm. The results are normalized to the mass loss control (BC + TNF).

[2] = system: collagen type I in primary human dermal fibroblasts (HDFn); assay: Type I collagen synthesis on human dermal fibroblasts by ELISA; details: 0.5 µg/ml, HDFn; for % Collagen induction: 48 hours, versus non-treated cells, mean of 5 assays
Source text: In vitro study of type I collagen synthesis on human dermal fibroblasts by Enzyme-Linked Immunosorbent Assay.
Collagen type I is the principal collagen of skin. This molecule, which is mainly produced by fibroblasts, is responsible for the strength and resiliency of this tissue. For this reason, in vitro quantification of collagen induction by cosmetic products on human dermal fibroblasts provides information about their potential anti-aging effects on the skin. Collagen induction by the peptides of the invention is evaluated with an Enzyme-Linked Immunosorbent Assay (ELISA). The aim of this study is to investigate the ability of a product to induce collagen type I synthesis in primary human dermal fibroblasts isolated from neonatal skin (HDFn).
HDFn (Cascade) are seeded at a density of 5×10^4 in 48-well plates. After 24-hour incubation, fresh medium with scalar dilutions of the test items at 0.5 µg/ml are added. Non-treated cells are used as basal control. The cells are treated for 48 hours. Then, the medium of the wells is collected and transferred into a 96-well plate. A standard calibration curve prepared with calf skin type I collagen (Sigma) is transferred into the plate as well. The plate is left overnight in order to coat type I collagen into its surface. After that, collagen I is detected with an anti-collagen type I antibody (Sigma). The primary antibody is then recognized by a secondary antibody IgG-HRP (molecular probes). 3,3,5,5-tetramethylbenzidine liquid substrate (TMB, Sigma) is added to measure the amount of secondary antibody attached. The color produced by this reaction is measured in a microtiter plate reader (Clariostar™, BMG) and type I collagen concentration is determined using a linear regression of the standard curve.

[3] = system: human subcutaneous pre-adipocytes; assay: Lipid accumulation in coculture of young and old human subcutaneous pre-adipocytes (Adipored staining); details: 0.01 mg/ml; for %LA (percentage of lipid accumulation): 12 days, coculture of donor cells, respect to coculture control = 100
Source text: In vitro effect of PEP-22 and PEP-23 in lipid accumulation in human subcutaneous pre-adipocytes.
Measurement of lipid accumulation in a coculture of young and old adipose cells indirectly evaluates the inhibition of SASP. A pool of old adipose cells has a higher number of senescent cells. When cocultured with young cells, lipid accumulation observed is below the theoretically expected levels due to a senescence induction effect of SASP from old to young adipocytes.
Induction of lipid accumulation by the peptides of the invention is evaluated by lipid fluorescent staining with Adipored® Assay Reagent. The aim of this study is to investigate the capacity of peptide candidates to induce lipid accumulation in human subcutaneous adipocytes, and therefore prevent adipocytes senescence.
Human subcutaneous pre-adipocytes (donors, Cell applications) cells are cocultured in 96-well plates at a density of 4×10^3 cells/well each age in Human Preadipocyte Growth Medium (Sigma). Monoculture of each age are seeded at a density of 8×10^3 cells/well as age lipid accumulation controls. After 24 hours incubation, differentiation of pre-adipocytes into adipocytes is induced by changing medium to fresh Human Preadipocyte Differentiation Medium (Promocell). At the same time, cocultured cells are treated with 0.01 mg/ml of peptides of the invention. Non-treated cocultured cells are used as basal control and monocultured young and old cells as age lipid accumulation controls. After 12 days of treatment and differentiation, cells are stained with Adipored® Assay Reagent (Lonza) following the manufacturer’s instructions. In brief, the plate is washed with Phosphate Buffer Saline (Sigma) and then Adipored® reagent and Hoechst 33342 (Life technologies) are added and incubated for 15 minutes at 37° C. Finally, fluorescence intensity and nuclei number are measured by Operetta (Perkin Elmer). Fluorescence is normalized by cell nuclei and results are represented respect to cocultured basal control. Abbreviations: % LA = Percentage of lipid accumulation; CC = Coculture control; YC = young control; OC = old control.

Substance	% Loss (muscle mass loss) [1]	Mass loss compared to basal control treated with TNF-α (in words) [1]	% Collagen induction [2]	Efficacy in increasing collagen type I compared with Argireline (in words) [2]	Lipid accumulation in adipocytes compared to coculture basal control (in words) [3]	%LA (percentage of lipid accumulation) [3]
Ac-L-Arg-L-Arg-L-Gln-D-Met-L-Glu-L-Glu-NH2 [PEP-23]	71.9%	alleviate mass loss	114.6%	even higher	increase lipid accumulation	159.9%
Ac-L-Arg-L-Arg-D-Gln-L-Met-L-Glu-L-Glu-NH2 [PEP-22]	76.2%	alleviate mass loss	106.0%		increase lipid accumulation	133.9%
